One test has as its system RBL-2H3 cell line. Description: Degranulation (β-hexosaminidase, co-secreted with histamine) in RBL-2H3 cells. Format: cell-based. The conditions noted are these: RBL-2H3, IgE + antigen DNP-HAS; 120 μL bacterial culture supernatant or ketotifen 20 μg/mL; negative control (Siraganian buffer) = 1.0. The text has this: It has been reported that, in an allergic reaction, histamine is expressed in tissues, causing an inflammatory reaction, and suppressing histamine secretion leads to alleviation of allergic symptoms by blocking the reaction by histamine. In the present invention, the alleviation of allergic reactions and the therapeutic effect thereon through inhibition of histamine secretion by KBL697 were further confirmed. Further, in order to confirm whether the effect for treating and preventing chronic allergies identified in Example 1 is an inherent attribute of Lactobacillus gasseri, or is a remarkable effect particularly in KBL697 among Lactobacillus gasseri, the ability to suppress histamine secretion was evaluated also for nine additional Lactobacillus gasseri strains in addition to KBL697. […]
To identify the activity of β-hexosaminidase, 25 μL of the supernatant collected in Example 2-3 was transferred to each well of a 96-well plate, and then 25 μL of substrate (p-nitrophenyl N-acetyl-D-glucosaminidase) was added to each, and followed by a reaction at 37° C. in the 5% CO2 incubator for 90 minutes. Then, 200 μL of stop solution (Na2CO3/NaHCO3) was added to stop the reaction and then absorbance was measured at 405 nm. […]

Test [1] relates to C57BL6 mice with DSS-induced colitis. Description: DSS-induced colitis in C57BL6 mice, KBL697 with or without infliximab. The conditions noted are these: administered alone. Type of test: in vivo, mouse. The text has this:
Infliximab (product name Remicade) is a therapeutic recombinant antibody drug used as an injection for autoimmune diseases such as rheumatoid arthritis, ankylosing spondylitis, ulcerative colitis, Crohn's disease in adults, Crohn's disease in children, psoriasis, and psoriatic arthritis. The purpose of this study was to confirm the effect of improving intestinal disease symptoms in vivo in the case of concurrent administration of KBL697 and infliximab.
After dividing C57BL6 mice into groups of eight mice, the mice were fed tap water with 2% DSS dissolved therein for 8 days (D0 to D7), inducing colitis. At the same time, 200 μL of PBS was orally administered to the mice in the control group for 14 days (D0 to D13) daily, while 200 μL of the KBL697 strain diluted in PBS to 1×10^10 CFU/mL was orally administered to the mice in the group dosed with KBL697 so that the amount of daily administration could be set at 2×10^9 CFU. […] During the 14 days in which colitis was induced by DSS, the body weight changes of the mice in the control group and each test group were measured daily, and on the 14th day after DSS was supplied (D14), mice were subjected to autopsies to measure the length of the colon.

Take `CN1CCC(=C2c3ccccc3CC(=O)c3sccc32)CC1` [Ketotifen, ketotifen]: the “β-hexosaminidase (fold change)” value in the test on RBL-2H3 cell line turned out to be 0.3861 fold change.
Consider “infliximab: therapeutic recombinant antibody drug (product name Remicade)”, for which the “width of decrease in the colon length compared to control group (DSS+PBS)” value in test [1] (2% DSS 8 days, KBL697 2×10^9 CFU oral daily, infliximab 5 mg/kg, D14, FIGS. 18A, 18B) is “significantly improved”. The “effect on body weight decrease compared to control group” value in test [1] (2% DSS, when 14 days elapsed after the administration) is listed as “significantly improved”.

The values above are taken from patent US11819526B2, “Lactobacillus Gasseri KBL697 strain and use thereof” (KoBioLabs, Inc., priority 2018, dated 2023).
